Reference: patent publication US5567728A, “Receptor ligands” (priority 1991, dated 1996)
Counter-ions that a name gives are not always drawn.

What was measured:
[1] = target: T1, Human thyroid hormone receptor β1 (hThR β1) (Homo sapiens, UniProt P10828); assay: Binding experiments: displacement of 125I-T-3 from hThR β1; details: [hThRβ]=5.0×10^-11 M; [125I-T3]=2.0×10^-10 M; pH 7,5; incubated over night (16-20 hours); not above +4° C
T1 construct: made in house; host or cells: insect cells, recombinant baculovirus
T1 sequence (P10828 1-461): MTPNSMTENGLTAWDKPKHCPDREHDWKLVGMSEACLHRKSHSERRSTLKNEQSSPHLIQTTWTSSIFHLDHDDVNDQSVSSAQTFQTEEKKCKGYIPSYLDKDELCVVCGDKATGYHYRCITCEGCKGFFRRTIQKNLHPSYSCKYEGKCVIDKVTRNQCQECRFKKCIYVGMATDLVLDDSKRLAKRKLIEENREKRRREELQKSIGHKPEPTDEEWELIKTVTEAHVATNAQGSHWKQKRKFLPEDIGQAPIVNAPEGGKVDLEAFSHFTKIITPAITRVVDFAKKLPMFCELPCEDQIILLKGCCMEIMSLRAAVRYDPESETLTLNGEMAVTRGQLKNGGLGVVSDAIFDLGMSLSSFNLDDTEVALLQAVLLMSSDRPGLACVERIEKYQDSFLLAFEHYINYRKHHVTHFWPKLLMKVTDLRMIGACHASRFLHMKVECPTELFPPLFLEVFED
Description: Human thyroid hormone receptor β1 (hThR β1) was expressed in insect cells using a recombinant baculovirus (Barkhem T., et al. The Journal of Steroid Biochemistry and Molecular Biology: Vol 38, No 6 (1991) p 667).
Solutions of hThR β1 and of ^125 I-T-3 were made in E400 (K2 HPO4 =20 mM, KCl=400 mM, MgCl2 =l mM, EDTA=0,5 mM, monothioglycerol=6 mM, glycerol 8,7% (v/v), histones (type 11AS) 10 μg/ml pH=7,5). Histones and Monothioglycerol were purchased from Sigma (St. Louis, Mo., USA), the other compounds in E400 were from Merck (Darmstadt, BRD). […] Stock solutions of the compound (011) (20 mM) was made in 5% EtOH/1 mM NaOH.
For convenience the incubations were performed over night (16-20 hours).
The incubation was stopped by the loading of 180 μl incubation mixture on a Quik-Sep Sephadex G-25 column (#9041-35-4 ISOLAB, Akron, Ohio, USA). The peak of protein-bound 125 I-T-3 was eluted with 1 ml E400 and collected in a test tube (passage of free T-3 through column is delayed). The eluted radioactivity was measured in a gamma-counter.
All incubations and dilutions were made in polypropylene tubes. Great care was taken to avoid exposure of hThR β1 to temperatures above +4° C.
(DeLean, A., et al, Am. J. Physiol. 235: E97-E102. (1978)).
The calculations were performed in KaleidaGraph™ 2.0.2 (Adelbeck Software) on a Macintosh IIcx computer.
Experiments conducted with [hThRβ]=5.0×10^-11 M and with [^125 I-T3 ]=2.0×10^-10 M

T-3 receptor = assay: biological assay, such as the method of Westerfield et al. (T-3 receptor antagonism); details: "can be shown" by a biological assay such as Westerfield et al.; no data given
[2] = tested on: isolated intestine of the guinea-pig; details: cited from earlier work
[3] = tested on: coronary vessels of the heart of the rabbit; details: cited from earlier work
[4] = tested on: rat growth hormone (rGH) mRNA levels in cultured rat pituitary cells; details: dose dependent; cited from earlier work

SMILES | IC50 [1] [µM] | T-3 receptor antagonism (T-3 receptor) | spasmolytic activity [2] | dilatory effects on coronary vessels [3] | inhibition of T-3 induced increase in rGH mRNA levels [4]
CN(C)CCOc1c(I)cc(C(=O)c2ccc(O)c(I)c2)cc1I [(024), 4'-hydroxy-3'-iodo-3,5-diiodo-4-(2-N,N-dimethylaminoethoxy))benzophenon hydrochloride] | 11 | T-3 receptor antagonists | – | – | –
Cc1oc2ccccc2c1Cc1cc(I)c(OCC(=O)O)c(I)c1 [(015), 2-methyl-3-(3,5-diiodo-4-carboxymethoxybenzyl)benzofuran] | 8 | T-3 receptor antagonists | – | – | –
Cc1oc2ccccc2c1C(=O)c1cc(I)c(O)c(I)c1 [(011), 2-methyl-3-(3,5-diiodo-4-hydroxy-benzoyl)benzofuran] | 2.5 | T-3 receptor antagonists | spasmolytic activity | some dilatory effects on the coronary vessels | –
CCCCc1oc2ccccc2c1C(O)c1cc(I)c(OCCN(CC)CC)c(I)c1 (stereo not shown) [(001), 3,5-diiodo-4-(2-N,N-diethylaminoethoxy)phenyl-(2-butyl-benzofur-3-yl)methanol hydrochloride] | 3.6 | T-3 receptor antagonists | – | – | –
CCCCc1oc2ccccc2c1C(=O)c1cc(I)c(OCCN(CC)CC)c(I)c1 [Amiodarone] | – | – | – | – | inhibit T-3 induced increase in rat growth hormone (rGH) mRNA levels
Oc1ccc(Cc2cc(I)c(O)c(I)c2)cc1I [(032), 4', 4-dihydroxy-3'3,5-triiodo-diphenylmethan] | 0.42 | T-3 receptor antagonists | – | – | –
CCN(CC)CCOc1c(I)cc(C(=O)c2c(C)oc3ccccc23)cc1I [(003), 2-methyl-3-(3,5-diiodo-4-(2-N,N-diethylaminoethoxy)-benzoyl)-benzofuran hydrochloride] | 10 | T-3 receptor antagonists | – | – | –
CCCCc1oc2ccccc2c1C(=O)c1ccc(O)c(I)c1 [(029), 2-butyl-3-(3-iodo-4-hydroxybenzoyl)benzofuran] | 3.2 | T-3 receptor antagonists | – | – | –
CCCCc1oc2ccccc2c1C(=O)c1cc(I)c(OCC(=O)O)c(I)c1 [(005), 2-n-butyl-3-(3,5-diiodo-4-carboxymethoxy-benzoyl)benzofuran] | 4 | T-3 receptor antagonists | – | – | –
